This assay concerns VE-cadherin and Claudin-5 in pHUVECs. Description: Immunofluorescence of VE-cadherin and Claudin-5 junctional staining in pHUVECs treated with COVID-19 patient plasma. It is filed as cell-based, human. Conditions: co-treatment with moderate or severe COVID-19 plasma, six hours.

For the substance Nangibotide, the “disruption of the EC barrier, as examined through junctional protein expression (VE-cadherin, Claudin-5)” value is “could maintain junctional protein expression”.

Values taken from patent US20230194530A1, “CIRCULATING CARDIOVASCULAR BIOMARKERS AND VASCULAR STABILIZING THERAPY” (priority 2021, published 2023).
